Here are results for three molecules from ChEMBL document CHEMBL3098121, “Dactyloditerpenol acetate, a new prenylbisabolane-type diterpene from Aplysia dactylomela with significant in vitro anti-neuroinflammatory activity” (Bioorg Med Chem Lett, 2014).

Assay [1] can be described thus: Cytotoxicity against rat brain neonatal microglia by LDH release assay. (In general: LDH leaks from cells whose membrane has failed.)
The nature of assay [2]: Antineuroinflammatory activity in rat brain neonatal microglia assessed as inhibition of LPS-induced superoxide anion generation. In kind it is functional, tissue-based.
The nature of assay [3]: Antineuroinflammatory activity in rat brain neonatal microglia assessed as inhibition of LPS-induced TXB2 generation. Format: functional, tissue-based.
Assay [4] has as its system Mycobacterium tuberculosis. Put plainly: Antimycobacterial activity against Mycobacterium tuberculosis H37Rv. Format: functional.
Another assay deals with A2058. As to the kind of experiment: Cytotoxicity against human A2058 cells. In kind it is functional.
The subject of the next assay is DU-145. Put plainly: Cytotoxicity against human DU145 cells. In kind it is functional.
The nature of assay [5]: Antineuroinflammatory activity in rat brain neonatal microglia. In kind it is functional, tissue-based.

≈ marks a conversion by molar mass, not a printed value.

For the molecule `CC(=O)O[C@@H](CC[C@@H](C)[C@@H]1CCC(C)=C[C@H]1O)[C@](C)(O)CCC=C(C)C`, the values for the IC50 in assay [1], in assay [2] and in assay [3] were greater than 10 µM, 1 µM and 0.4 µM, respectively. Moreover, the MIC – broadly, the smallest concentration in the dilution series that meets the test's criterion for growth inhibition – in assay [4] stood at 59.4 µg/mL (≈ 162 µM). The Activity with A2058 was determined as 67%; in the assay on DU-145 it was 77%.

For the molecule `CC(=O)Oc1ccccc1C(=O)O` [ASPIRIN], in assay [5] (read-out: IC50), the IC50 – broadly, the midpoint of a concentration-inhibition curve – was determined as 0.0032 µM.

On to `CC(C(=O)O)c1ccc(-c2ccccc2)c(F)c1` (stereo not drawn) [FLURBIPROFEN], for which the IC50 in assay [5] (read-out: IC50(app)) worked out at 0.1 µM.
